Reference: US4918061A, “Method of preventing diseases caused by gram-negative endotoxin in mammals” (priority 1988, dated 1990)

Key:
[1] = Biological activity after removal of moieties of lipid X
[2] = Storage stability of lipid X stock solutions; assay type: physicochemical; conditions: stock solutions 5-10 mg/ml stored frozen at -20° C.
Method: (§1) Preparation of E. coli lipid X. The 2,3-diacylglucosamine 1-phosphate (E. coli lipid X) was isolated from E. coli strain MN7 (ATCC #39328) as described previously (9). Lipid X obtained in this manner is a solid white powder. Stock solutions (1-10 mg/ml) are usually prepared in aqueous 1 mM EDTA titrated to pH 8 with Tris-free base. Other monovalent counter ions, such as (NH4)^+, Na^+, K^+, etc., may also be used, but divalent cations such as Mg^++ and Ca^++ cause the lipid to precipitate. […] In experiments involving the use of mice, solid lipid X was first dissolved in 0.9% saline (instead of water) and titrated with Tris-free base to pH 8 in the same manner.

B cell = conditions: cited from earlier work
[3] = system: macrophage protein kinase C; conditions: cited from earlier work
macrophages = conditions: cited from earlier work
[4] = system: experimental tumors in guinea pigs; conditions: cited from earlier work
sheep [5] = experiment: Protection of sheep by lipid X against lethal effects of intravenous lipopolysaccharide; assay type: in vivo
Method: as §1, with “Lipid X obtained in this manner is a solid white powder.” left out, “base.” for “base. Other monovalent counter ions, such as (NH4)^+, Na^+, K^+, etc., may also be used, but divalent cations such as Mg^++ and Ca^++ cause the lipid to precipitate.”
(§2) Stock solutions of 5 mg/ml were prepared in sterile 0.9% saline.
(§3) Experimental Animals. Eight week old mice (strain C57BL/10) were purchased from Jackson Laboratories, Bar Harbor, ME. Mixed bred sheep weighing 30-70 kg were obtained from the University of Wisconsin Experimental Farms. Sheep were prepared as follows: at least 24 hours before each experiment catheters were percutaneously placed in the pulmonary artery. Any other catheterizations that were required for infusion were done at this time. All studies were performed on awake, unrestrained sheep placed in portable stanchions with food and water ad libitum. Electronically calculated pulmonary artery pressures as well as heart rates were recorded at various intervals on a Gilson polygraph (Gilson Instruments, Middleton, WI). To ensure a stable baseline prior to the injection of test compounds, approximately 1 hour of baseline measurements were recorded.

sheep [6] = experiment: Hemodynamic response and toxicity of lipid X in sheep; assay type: in vivo; conditions: 40 sheep injected with lipid X
Method: The hemodynamic response of sheep to lipid X has been studied (18). Essentially, the conclusions are that: 1) lipid X (40 μg/kg cumulative dose) causes a transient (3-5 min) increase in pulmonary arterial pressure, that may be attributed to prostaglandin release, or stimulated synthesis. […] The only significant symptoms observed after injection of lipid X alone are transient lethargy and shortness of breath (15-30 min), without significant distress or obvious adverse long-term consequences.
A period of transient pulmonary hypertension and slight short ness of breath subsides after 30 minutes. About 30 sheep were examined by Burhop with regard to lipid X toxicity.

C57BL/10 mice [7] = experiment: Protection of mice by lipid X against lethal endotoxemia; assay type: in vivo, mouse
Method: FIG. 4. […] Controls receiving no lipid X are shown at the left of each panel. The number of mice per group is either three or four, and is the sum of the dead and the living. The number of survivors is shown at the top of the panel. Each point represents the death of one mouse. When all individuals died the mean time of death is shown as a horizontal bar. […] Doses of lipid X were administered in 0.1 ml of physiological saline that had been titrated to pH 8 with Tris to dissolve the lipid.
as §3
Mice were allowed to rest for at least 7 days following their arrival and were sexually segregated and housed at 5 per cage with food and water ad libitum. […] No more than 0.1 ml of fluid was injected at a time. Just prior to injection, the mice were lightly anesthetized with ether. Following the injection, mice were observed every 0.5-6 hours and the time of death was recorded.
The lethal dose of E. coli endotoxin was determined both for the intravenous and of the intraperitoneal challenge.
Mice were given 750 μg of lipid X from 24 hours prior to 6 hours after endotoxin challenge with 1-2 LD100 doses.

sheep [8] = conditions: cited from earlier work
C57BL/10 mice [9] = experiment: Toxicity of lipid X in mice; assay type: in vivo, mouse
Method: To test for the toxicity of lipid X in mice, C57BL/10 mice were challenged with 750, 2000 or 5000 μg of lipid X intraperitoneally (12 mice) or with 750, 1500 or 3000 μg intravenously (7 mice).

[10] = Solution behaviour of lipid X; assay type: physicochemical
Method: as §1

[11] = previous work; dependent on being given prior to or very shortly after LPS challenge; cited from earlier work
sheep [12] = experiment: Lethality and clinical toxicity of intravenous lipopolysaccharide in sheep; conditions: usually the result of disseminated intravascular coagulopathy
Method: as §2, §3

[13] = sheep, pretreatment with lipid X
[14] = lipid X by itself 40-1000 μg/kg

CCCCCCCCCCCC(O)CC(=O)N[C@H]1[C@@H](OP(=O)(O)O)O[C@H](CO)[C@@H](O)[C@@H]1O (stereo partly drawn) [N-monoacyl glucosamine 1-phosphate]
biological activity after removal of the ester linked β-hydroxymyristoyl moiety ([1]; mild alkali treatment of lipid X): biologically inert

CCCCCCCCCCCC(O)CC(=O)N[C@H]1C(O)O[C@H](CO)[C@@H](O)[C@@H]1OC(=O)CC(O)CCCCCCCCCCC (stereo partly drawn) [dephospho-X]
biological activity after removal of the phosphate moiety ([1]; mild acid treatment of lipid X, may be due to inherent solubility of dephospho-X): reduces biological activity

CCCCCCCCCCCC(O)CC(=O)N[C@H]1[C@@H](OP(=O)(O)O)O[C@H](CO)[C@@H](O)[C@@H]1OC(=O)CC(O)CCCCCCCCCCC (stereo partly drawn) [lipid X, 2,3-diacylglucosamine 1-phosphate]
storage stability [2]: many months without evidence of significant deterioration | B cell mitogen (B cell): B cell mitogen | activation of macrophage protein kinase C [3]: can activate macrophage protein kinase C | macrophage activation with release of prostaglandin E2 (macrophages): capable of activating macrophages with release of protaglandin E2 | regression of experimental tumors [4]: capable of inducing regression of experimental tumors in guinea pigs | Survivors (sheep [5]; lipid X 50 μg/kg 1 hour prior to endotoxin, lipopolysaccharide 20 μg/kg): 1/2 | Survivors (sheep [5]; lipid X 100 μg/kg 15 min. prior to endotoxin, lipopolysaccharide 10 μg/kg): 3/3 | Survivors (sheep [5]; lipid X 100 μg/kg 1 hour prior to endotoxin, lipopolysaccharide 20 μg/kg): 4/4 | Survivors (sheep [5]; lipid X 200 μg/kg 1 hour prior to endotoxin, lipopolysaccharide 20 μg/kg): 3/3 | survival of subsequent LPS challenge (sheep [5]; sheep receiving 100-200 μg/kg lipid X during the pretreatment period): all the sheep receiving 100-200 μg/kg of lipid X during the pretreatment period survived | excess of lipid X over LPS required to ensure survival (sheep [5]; sheep, on a weight basis): 5-10 fold | effect on pulmonary hypertension or fever induced by LPS (sheep [5]; [13]): does not prevent pulmonary hypertension or fever | effect on serious clinical symptoms (shortness of breath, weakness, diarrhea, etc.) (sheep [5]; [13]): alleviates some of the serious clinical symptoms | resistance to the lethal effects of gram-negative endotoxin (sheep [5]; [13]): immediately resistant to the lethal effects | adverse complications of lipid X administration (sheep [6]): no serious adverse complications | last death after challenge (C57BL/10 mice [7]; 750 μg lipid X intravenously, 250 or 500 μg endotoxin intravenously): ≤ 5 days | mortality of group receiving lipid X shortly after endotoxin challenge (C57BL/10 mice [7]; both challenge doses, versus the group on either side): higher mortality than the group on either side | onset and duration of protection against lipopolysaccharide (C57BL/10 mice [7]; compared with classical tolerance, which does not appear for many days): immediate and wears off after several hours | survival of mice (C57BL/10 mice [7]; lipid X (750 μg intravenously) from 1 hour prior to through 4 hours post LPS challenge, 250 μg endotoxin): 81% | survival of mice (C57BL/10 mice [7]; lipid X from 6 hours prior to endotoxin challenge through 1 hour after LPS challenge, intravenous, printed 500 μg lipid X): Forty-one | prolongation of time to death (C57BL/10 mice [7]; lipid X intraperitoneally 2 hours before 1500 μg endotoxin (3 times LD100) intraperitoneally, data not shown): four | time to death (C57BL/10 mice [7]; lipid X intraperitoneally 2 hours before 1500 μg endotoxin, about 20 hours without lipid X, data not shown): ~80 h | resistance to the lethal effects of gram-negative endotoxin (C57BL/10 mice [7]; mice, pretreatment with lipid X): immediately resistant to the lethal effects | prevention of lethal endotoxicity when given after lipopolysaccharide (C57BL/10 mice [7]; mouse, lipid X given 4 hours after lipopolysaccharide): appears to prevent lethal endotoxicity even when given 4 hours after lipopolysaccharide | duration of transient increase in pulmonary arterial pressure (sheep [8]; lipid X 40 μg/kg cumulative dose): 3 to 5 min | duration of pulmonary hypertension (sheep [8]; lipid X 500-1000 μg/kg intravenously): 5 to 10 min | duration of transient lethargy and shortness of breath (sheep [8]; lipid X alone): 15 to 30 min | marked illness or fever (sheep [8]; [14]): does not create marked illness or fever | time for transient pulmonary hypertension and slight shortness of breath to subside (sheep [8]; [14]): 30 min | increased permeability of the pulmonary circulation (sheep [8]; lipid X, compared to endotoxin): to a very mild degree compared to endotoxin | delay between injection and increase of pulmonary arterial pressure (sheep [8]; lipid X): no delay | life-threatening pulmonary edema (sheep [8]; lipid X): does not develop | terminal endotoxemia (sheep [8]; very high doses of lipid X): fails to cause terminal endotoxemia | survival after lipid X challenge (C57BL/10 mice [9]; 750, 2000 or 5000 μg intraperitoneally (12 mice) or 750, 1500 or 3000 μg intravenously (7 mice)): All these mice lived | toxicity of lipid X (C57BL/10 mice [9]; mice): nontoxic in mice | behaviour with divalent cations ([10]; Mg^++ and Ca^++): precipitate | solution behaviour in Tris-EDTA ([10]; pH 8, stock solutions 1-10 mg/ml): forms a clear viscous solution | solubility in water ([10]; water): limited solubility

C=CCN1CC[C@]23c4c5ccc(O)c4O[C@H]2C(=O)CC[C@@]3(O)[C@H]1C5 [naloxone]
prevention of the complications of lipopolysaccharide injection [11]: limited prevention of the complications

lipid A
time of death after injection (occasional) (sheep [12]): 1-2 weeks
